From patent US20070274956A1, “Plant Germination Inhibitor And Method Of Use Thereof” (priority 2004, published 2007)

System: Oryzias latipes var.
Test: Harm to fish grown in treated water
Format: in vivo
Conditions: 10 males and 10 females grown in aqueous solution, 1×10^−2 g/l; one week
Method: Forty Oryzias latipes var. (20 males and 20 females) were divided into two groups (each group: 10 males and 10 females). One group was grown in an aqueous solution of the coloring matter xylindein (1×10^−2 g/l) and the other was grown in water in the presence of wood on which mycelia of Chlorociboria aeruginosa developed and which was rotten and stained blue.

Structure (SMILES): CCC[C@H]1Cc2c(c(O)c3c(=O)cc4oc5c6c(c(O)c7c(=O)cc8oc2c3c4c8c57)C(=O)O[C@@H](CCC)C6)C(=O)O1 [xylindein]
- anomaly in the fish: no anomaly was observed
